Among the data in paper PMC6969517 (Proceedings of the National Academy of Sciences of the …, 2019) are Ki values, retold here.

In this assay the target is T1, ShkA (Caulobacter vibrioides, UniProt Q9ABT2).
T1 sequence (Q9ABT2 1-514): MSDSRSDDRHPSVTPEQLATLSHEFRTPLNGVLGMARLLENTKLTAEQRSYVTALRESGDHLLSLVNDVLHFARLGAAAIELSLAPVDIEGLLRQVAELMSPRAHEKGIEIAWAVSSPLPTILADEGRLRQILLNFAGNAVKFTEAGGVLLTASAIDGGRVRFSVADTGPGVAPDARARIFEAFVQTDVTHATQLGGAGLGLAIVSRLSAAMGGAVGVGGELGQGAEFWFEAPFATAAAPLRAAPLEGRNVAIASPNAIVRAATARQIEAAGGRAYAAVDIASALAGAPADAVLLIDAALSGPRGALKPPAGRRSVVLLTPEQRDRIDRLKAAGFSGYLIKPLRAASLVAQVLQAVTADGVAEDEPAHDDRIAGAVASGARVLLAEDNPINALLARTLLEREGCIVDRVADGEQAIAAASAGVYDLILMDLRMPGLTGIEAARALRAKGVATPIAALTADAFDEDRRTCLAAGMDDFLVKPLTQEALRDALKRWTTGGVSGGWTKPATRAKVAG
Kind of assay: FCA and ITC. Format: biochemical.

As a reminder, the Ki is a measure of affinity in units of concentration, obtained from inhibition or displacement. Read a low Ki as a stronger hold on the target.

`Nc1ncnc2c1ncn2[C@@H]1O[C@H](COP(=O)(O)OP(=O)(O)O)[C@@H](O)[C@H]1O` [ADP] came in with a Ki of about 60 µM.
